In US12703729B2, “GIP agonist compounds and methods” (Zealand Pharma A/S, priority 2014, dated 2026):
Starred links: 1 amine or outer side, 2 acyl side, 3 side chain; linkers in the order of their positions; H or OH if unused. Non-standard residues stand in square brackets, D forms with d. Residues, ends and D or L forms follow the SMILES beside them. Groups on a side chain read outwards from the residue. *: point of attachment. X1 = O=C(O)CCCCCCCCCCCCCCCCCCC(=O)N1CCN(CC(=O)*)CC1; C20 diacid = O=C(O)CCCCCCCCCCCCCCCCCCC(=O)*; γGlu = O=C(O)[C@H](CCC(=O)[*:2])N[*:1]; AEEA = NCCOCCOCC(=O)O; Aib = CC(C)(N)C(=O)O

Experiments:
in vivo = settings: male, C57BL/6J, mouse; for bioavailability: Bioavailability s.c.; for half-life: 200 nmol/kg
human GIP R = molecular target: T1, human GIP R (Homo sapiens, UniProt P48546); assay: cell-based
T1 sequence (P48546 22-466): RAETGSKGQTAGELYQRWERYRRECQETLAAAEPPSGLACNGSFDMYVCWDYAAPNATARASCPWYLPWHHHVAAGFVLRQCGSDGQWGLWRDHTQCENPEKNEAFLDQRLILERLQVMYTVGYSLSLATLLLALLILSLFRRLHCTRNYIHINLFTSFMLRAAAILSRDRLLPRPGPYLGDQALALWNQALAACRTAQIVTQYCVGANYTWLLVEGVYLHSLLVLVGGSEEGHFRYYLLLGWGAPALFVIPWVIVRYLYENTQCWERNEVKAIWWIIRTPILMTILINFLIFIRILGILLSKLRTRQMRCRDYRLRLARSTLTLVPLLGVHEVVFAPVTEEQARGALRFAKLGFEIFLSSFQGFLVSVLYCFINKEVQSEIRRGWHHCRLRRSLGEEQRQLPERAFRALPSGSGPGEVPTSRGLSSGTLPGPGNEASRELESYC

[1] = molecular target: T2, human GIP receptor (GIP R) (Homo sapiens, UniProt P48546); assay: Activity assay at human GIP receptor, cAMP induction (AlphaScreen), Example 3
T2 sequence (P48546 22-466): T1 sequence (P48546 22-466)

[2] = molecular target: human GLP-1 receptor (GLP-1R) (Homo sapiens, UniProt P43220); assay: Activity assay at human GLP-1 receptor, cAMP induction (AlphaScreen), Example 3
Chain of human GLP-1 receptor (GLP-1R) (P43220 24-463): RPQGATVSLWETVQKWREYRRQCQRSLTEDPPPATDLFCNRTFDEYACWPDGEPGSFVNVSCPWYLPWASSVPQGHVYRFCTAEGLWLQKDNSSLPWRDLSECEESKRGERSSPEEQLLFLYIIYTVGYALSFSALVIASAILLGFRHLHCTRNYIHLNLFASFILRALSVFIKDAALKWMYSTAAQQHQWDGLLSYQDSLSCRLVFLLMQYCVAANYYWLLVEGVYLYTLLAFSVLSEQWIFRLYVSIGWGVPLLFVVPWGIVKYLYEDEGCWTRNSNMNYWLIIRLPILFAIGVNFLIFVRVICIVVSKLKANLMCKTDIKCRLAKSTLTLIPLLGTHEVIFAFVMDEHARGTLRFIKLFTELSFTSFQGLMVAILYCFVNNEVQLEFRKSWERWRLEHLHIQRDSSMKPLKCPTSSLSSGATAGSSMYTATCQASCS

[3] = iv, Terminal elimination half-life T½ i.v.
[4] = sc, Terminal elimination half-life T½ s.c.

Compound | bioavailability (in vivo) | half-life (in vivo; [3]) | Tmax (in vivo; sc) | half-life (in vivo; [4]) | EC50 (human GIP R) | EC50 [1] | EC50 [2]
CC[C@H](C)[C@H](NC(=O)[C@H](CCCCN)NC(=O)[C@H](CC(=O)O)NC(=O)[C@H](CC(C)C)NC(=O)[C@H](CCC(=O)O)NC(=O)[C@H](CCCCNC(=O)COCCOCCNC(=O)COCCOCCNC(=O)CC[C@H](NC(=O)CCCCCCCCCCCCCCCCCCC(=O)O)C(=O)O)NC(=O)[C@H](CO)NC(=O)[C@H](Cc1ccc(O)cc1)NC(=O)[C@H](CC(=O)O)NC(=O)[C@H](CO)NC(=O)[C@@H](NC(=O)[C@H](Cc1ccccc1)NC(=O)[C@@H](NC(=O)CNC(=O)[C@H](CCC(=O)O)NC(=O)C(C)(C)NC(=O)[C@@H](N)Cc1ccc(O)cc1)[C@@H](C)O)[C@@H](C)CC)C(=O)N[C@@H](C)C(=O)N[C@@H](CCC(N)=O)C(=O)N[C@@H](CCCNC(=N)N)C(=O)N[C@@H](C)C(=O)N[C@@H](Cc1ccccc1)C(=O)N[C@H](C(=O)N[C@@H](CCC(=O)O)C(=O)N[C@@H](Cc1c[nH]c2ccccc12)C(=O)N[C@@H](CC(C)C)C(=O)N[C@@H](CC(C)C)C(=O)N[C@@H](C)C(=O)N[C@@H](CCC(N)=O)C(=O)NCC(=O)N1CCC[C@H]1C(=O)N[C@@H](CO)C(=O)N[C@@H](CO)C(=O)NCC(=O)N[C@@H](C)C(=O)N1CCC[C@H]1C(=O)N1CCC[C@H]1C(=O)N1CCC[C@H]1C(=O)N[C@@H](CO)C(N)=O)[C@@H](C)CC [Compound 35] (H-Y[Aib]EGTFISDYSK([AEEA-AEEA-γGlu-C20 diacid])ELDKIAQRAFIEWLLAQGPSSGAPPPS-NH2) | 73% | 14.5 h | 4 h | 14.5 h | 8 pM | 11 pM | > 3000 pM
CC[C@H](C)[C@H](NC(=O)[C@H](Cc1ccccc1)NC(=O)[C@H](CC(=O)O)NC(=O)[C@H](CCC(N)=O)NC(=O)[C@H](C)NC(=O)[C@H](C)NC(=O)[C@H](CCCCNC(=O)COCCOCCNC(=O)COCCOCCNC(=O)CN1CCN(C(=O)CCCCCCCCCCCCCCCCCCC(=O)O)CC1)NC(=O)[C@H](CCCCN)NC(=O)[C@H](CC(=O)O)NC(=O)[C@H](CC(C)C)NC(=O)[C@H](CCC(=O)O)NC(=O)[C@@H](NC(=O)[C@H](CO)NC(=O)[C@H](Cc1ccc(O)cc1)NC(=O)[C@H](CC(=O)O)NC(=O)[C@H](CO)NC(=O)[C@@H](NC(=O)[C@H](Cc1ccccc1)NC(=O)[C@@H](NC(=O)CNC(=O)[C@H](CCC(=O)O)NC(=O)C(C)(C)NC(=O)[C@@H](N)Cc1ccc(O)cc1)[C@@H](C)O)[C@@H](C)CC)[C@@H](C)CC)C(=O)N[C@@H](CCC(=O)O)C(=O)N[C@@H](Cc1c[nH]c2ccccc12)C(=O)N[C@@H](CC(C)C)C(=O)N[C@@H](CC(C)C)C(=O)N[C@@H](C)C(=O)NCC(=O)N1CCC[C@H]1C(=O)N[C@@H](CO)C(=O)N[C@@H](CO)C(=O)NCC(=O)N[C@@H](C)C(=O)N1CCC[C@H]1C(=O)N1CCC[C@H]1C(=O)N1CCC[C@H]1C(=O)N[C@@H](CO)C(N)=O [Compound 33] (H-Y[Aib]EGTFISDYSIELDKK([AEEA-AEEA-X1])AAQDFIEWLLAGPSSGAPPPS-NH2) | 78% | 21.7 h | 8 h | 18.7 h | 14 pM | 20 pM | > 10000 pM
CC[C@H](C)[C@H](NC(=O)[C@H](CO)NC(=O)[C@H](Cc1ccc(O)cc1)NC(=O)[C@H](CC(=O)O)NC(=O)[C@H](CO)NC(=O)[C@@H](NC(=O)[C@H](Cc1ccccc1)NC(=O)[C@@H](NC(=O)CNC(=O)[C@H](CCC(=O)O)NC(=O)C(C)(C)NC(=O)[C@@H](N)Cc1ccc(O)cc1)[C@@H](C)O)[C@@H](C)CC)C(=O)N[C@@H](CCC(=O)O)C(=O)N[C@@H](CC(C)C)C(=O)N[C@@H](CC(=O)O)C(=O)N[C@@H](CCCCN)C(=O)N[C@@H](CCCCNC(=O)COCCOCCNC(=O)COCCOCCNC(=O)CC[C@H](NC(=O)CCCCCCCCCCCCCCCCCCC(=O)O)C(=O)O)C(=O)N[C@@H](C)C(=O)N[C@@H](CCC(N)=O)C(=O)N[C@@H](CCCNC(=N)N)C(=O)N[C@@H](C)C(=O)N[C@@H](Cc1ccccc1)C(=O)N[C@H](C(=O)N[C@@H](CCC(=O)O)C(=O)N[C@@H](Cc1c[nH]c2ccccc12)C(=O)N[C@@H](CC(C)C)C(=O)N[C@@H](CC(C)C)C(=O)N[C@@H](C)C(=O)N[C@@H](CCC(N)=O)C(=O)NCC(=O)N1CCC[C@H]1C(=O)N[C@@H](CO)C(=O)N[C@@H](CO)C(=O)NCC(=O)N[C@@H](C)C(=O)N1CCC[C@H]1C(=O)N1CCC[C@H]1C(=O)N1CCC[C@H]1C(=O)N[C@@H](CO)C(N)=O)C(C)C [Compound 17] (H-Y[Aib]EGTFISDYSIELDKK([AEEA-AEEA-γGlu-C20 diacid])AQRAFVEWLLAQGPSSGAPPPS-NH2) | 56% | 16.3 h | 8 h | 19.9 h | 7 pM | 16 pM | > 3000 pM
CC[C@H](C)[C@H](NC(=O)[C@H](CO)NC(=O)[C@H](Cc1ccc(O)cc1)NC(=O)[C@H](CC(=O)O)NC(=O)[C@H](CO)NC(=O)[C@@H](NC(=O)[C@H](Cc1ccccc1)NC(=O)[C@@H](NC(=O)CNC(=O)[C@H](CCC(=O)O)NC(=O)C(C)(C)NC(=O)[C@@H](N)Cc1ccc(O)cc1)[C@@H](C)O)[C@@H](C)CC)C(=O)N[C@@H](CCC(=O)O)C(=O)N[C@@H](CC(C)C)C(=O)N[C@@H](CC(=O)O)C(=O)N[C@@H](CCCCN)C(=O)N[C@@H](CCCCNC(=O)COCCOCCNC(=O)COCCOCCNC(=O)CN1CCN(C(=O)CCCCCCCCCCCCCCCCCCC(=O)O)CC1)C(=O)N[C@@H](C)C(=O)N[C@@H](CCC(N)=O)C(=O)N[C@@H](CCCCN)C(=O)N[C@@H](CCC(=O)O)C(=O)N[C@@H](Cc1ccccc1)C(=O)N[C@H](C(=O)N[C@@H](CCC(=O)O)C(=O)N[C@@H](Cc1c[nH]c2ccccc12)C(=O)N[C@@H](CC(C)C)C(=O)N[C@@H](CC(C)C)C(=O)N[C@@H](C)C(=O)N[C@@H](C)C(=O)NCC(=O)N1CCC[C@H]1C(=O)N[C@@H](CO)C(=O)N[C@@H](CO)C(=O)NCC(=O)N[C@@H](C)C(=O)N1CCC[C@H]1C(=O)N1CCC[C@H]1C(=O)N1CCC[C@H]1C(=O)N[C@@H](CO)C(N)=O)C(C)C [Compound 21] (H-Y[Aib]EGTFISDYSIELDKK([AEEA-AEEA-X1])AQKEFVEWLLAAGPSSGAPPPS-NH2) | 67% | 24.8 h | 8 h | 21 h | 7 pM | 6 pM | > 3000 pM
CC[C@H](C)[C@H](NC(=O)[C@H](CCCCNC(=O)COCCOCCNC(=O)COCCOCCNC(=O)CC[C@H](NC(=O)CCCCCCCCCCCCCCCCCCC(=O)O)C(=O)O)NC(=O)[C@H](CC(=O)O)NC(=O)[C@H](CC(C)C)NC(=O)[C@H](CCC(=O)O)NC(=O)[C@@H](NC(=O)[C@H](CO)NC(=O)[C@H](Cc1ccc(O)cc1)NC(=O)[C@H](CC(=O)O)NC(=O)[C@H](CO)NC(=O)[C@@H](NC(=O)[C@H](Cc1ccccc1)NC(=O)[C@@H](NC(=O)CNC(=O)[C@H](CCC(=O)O)NC(=O)C(C)(C)NC(=O)[C@@H](N)Cc1ccc(O)cc1)[C@@H](C)O)[C@@H](C)CC)[C@@H](C)CC)C(=O)N[C@@H](C)C(=O)N[C@@H](CCC(N)=O)C(=O)N[C@@H](CCCNC(=N)N)C(=O)N[C@@H](C)C(=O)N[C@@H](Cc1ccccc1)C(=O)N[C@H](C(=O)N[C@@H](CCC(=O)O)C(=O)N[C@@H](Cc1c[nH]c2ccccc12)C(=O)N[C@@H](CC(C)C)C(=O)N[C@@H](CC(C)C)C(=O)N[C@@H](C)C(=O)N[C@@H](CCC(N)=O)C(=O)NCC(=O)N1CCC[C@H]1C(=O)N[C@@H](CO)C(=O)N[C@@H](CO)C(=O)NCC(=O)N[C@@H](C)C(=O)N1CCC[C@H]1C(=O)N1CCC[C@H]1C(=O)N1CCC[C@H]1C(=O)N[C@@H](CO)C(N)=O)[C@@H](C)CC [Compound 34] (H-Y[Aib]EGTFISDYSIELDK([AEEA-AEEA-γGlu-C20 diacid])IAQRAFIEWLLAQGPSSGAPPPS-NH2) | – | – | – | – | 11 pM | 17 pM | > 10000 pM
CC[C@H](C)[C@H](NC(=O)[C@H](CO)NC(=O)[C@H](Cc1ccc(O)cc1)NC(=O)[C@H](CC(=O)O)NC(=O)[C@H](CO)NC(=O)[C@@H](NC(=O)[C@H](Cc1ccccc1)NC(=O)[C@@H](NC(=O)CNC(=O)[C@H](CCC(=O)O)NC(=O)C(C)(C)NC(=O)[C@@H](N)Cc1ccc(O)cc1)[C@@H](C)O)[C@@H](C)CC)C(=O)N[C@@H](CCC(=O)O)C(=O)N[C@@H](CC(C)C)C(=O)N[C@@H](CC(=O)O)C(=O)N[C@@H](CCCCN)C(=O)N[C@@H](CCCCNC(=O)COCCOCCNC(=O)COCCOCCNC(=O)CC[C@H](NC(=O)CCCCCCCCCCCCCCCCCCC(=O)O)C(=O)O)C(=O)N[C@@H](C)C(=O)N[C@@H](C)C(=O)N[C@@H](CCC(N)=O)C(=O)N[C@@H](CC(=O)O)C(=O)N[C@@H](Cc1ccccc1)C(=O)N[C@H](C(=O)N[C@@H](CC(N)=O)C(=O)N[C@@H](Cc1c[nH]c2ccccc12)C(=O)N[C@@H](CC(C)C)C(=O)N[C@@H](CC(C)C)C(=O)N[C@@H](C)C(=O)N[C@@H](C)C(=O)NCC(=O)N1CCC[C@H]1C(=O)N[C@@H](CO)C(=O)N[C@@H](CO)C(=O)NCC(=O)N[C@@H](C)C(=O)N1CCC[C@H]1C(=O)N1CCC[C@H]1C(=O)N1CCC[C@H]1C(=O)N[C@@H](CO)C(N)=O)C(C)C [Compound 30] (H-Y[Aib]EGTFISDYSIELDKK([AEEA-AEEA-γGlu-C20 diacid])AAQDFVNWLLAAGPSSGAPPPS-NH2) | – | – | – | – | 9 pM | 14 pM | > 10000 pM
